# Where “and” joins values, the source holds several entries; their conditions need not be identical. Equal entries are not always repeated.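 Each compound was tested at five concentrations against cells in 96-well plates for 48 hours. GI50 = concentration required for 50% inhibition of growth. TGI is the concentration that stops growth completely.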
# Tests used:
# Test in all cases: NCI anticancer screen, dose series, 48 h
# 786-0 renal = test system: 786-0 renal
# A498 renal = test system: A498 renal
# A549 NSCLC = test system: A549 NSCLC
# ACHN renal = test system: ACHN renal
# CAKI-1 renal = test system: CAKI-1 renal
# CCRF-CEM leukemia = test system: CCRF-CEM leukemia
# COLO 205 colon = test system: COLO 205 colon
# DU-145 prostate = test system: DU-145 prostate
# EKVX NSCLC = test system: EKVX NSCLC
# HCC-2998 colon = test system: HCC-2998 colon
# HCT-116 colon = test system: HCT-116 colon
# HCT-15 colon = test system: HCT-15 colon
# HL-60(TB) leukemia = test system: HL-60(TB) leukemia
# HOP-62 NSCLC = test system: HOP-62 NSCLC
# HOP-92 NSCLC = test system: HOP-92 NSCLC
# HS 578T breast = test system: HS 578T breast
# HT29 colon = test system: HT29 colon
# IGROV1 ovarian = test system: IGROV1 ovarian
# K-562 leukemia = test system: K-562 leukemia
# KM12 colon = test system: KM12 colon
# LOX IMVI melanoma = test system: LOX IMVI melanoma
# M14 melanoma = test system: M14 melanoma
# MCF7 breast = test system: MCF7 breast
# MDA-MB-231 breast = test system: MDA-MB-231 breast
# MDA-MB-435 = test system: MDA-MB-435
# MOLT-4 leukemia = test system: MOLT-4 leukemia
# NCI-H23 lung = test system: NCI-H23 lung
# NCI/ADR-RES ovarian = test system: NCI/ADR-RES ovarian
# OVCAR-4 ovarian = test system: OVCAR-4 ovarian
# OVCAR-5 ovarian = test system: OVCAR-5 ovarian
# OVCAR-8 ovarian = test system: OVCAR-8 ovarian
# PC-3 prostate = test system: PC-3 prostate
# RPMI-8226 leukemia = test system: RPMI-8226 leukemia
# RXF 393 renal = test system: RXF 393 renal
# SF-268 CNS = test system: SF-268 CNS
# SF-295 CNS = test system: SF-295 CNS
# SF-539 CNS = test system: SF-539 CNS
# SK-MEL-2 melanoma = test system: SK-MEL-2 melanoma
# SK-MEL-28 melanoma = test system: SK-MEL-28 melanoma
# SK-OV-3 ovarian = test system: SK-OV-3 ovarian
# SN12C renal = test system: SN12C renal
# SNB-19 CNS = test system: SNB-19 CNS
# SNB-75 CNS = test system: SNB-75 CNS
# SR leukemia = test system: SR leukemia
# SW-620 colon = test system: SW-620 colon
# TK-10 renal = test system: TK-10 renal
# U251 CNS = test system: U251 CNS
# UACC-257 melanoma = test system: UACC-257 melanoma
# UO-31 renal = test system: UO-31 renal
smiles,measurement,setting,value
CN1CCc2cc3c(cc2C1O)OCO3 (stereo not given),GI50,786-0 renal,17.6 µM and > 100 µM
same,TGI,786-0 renal,34.5 µM and > 100 µM
same,GI50,A498 renal,22.9 µM and > 100 µM
same,TGI,A498 renal,39.9 µM and > 100 µM
same,GI50,A549 NSCLC,15.9 µM and > 100 µM
same,TGI,A549 NSCLC,31.6 µM and > 100 µM
same,GI50,ACHN renal,19.2 µM and > 100 µM
same,TGI,ACHN renal,36.2 µM and > 100 µM
same,GI50,CAKI-1 renal,14.8 µM and > 100 µM
same,TGI,CAKI-1 renal,30.6 µM and > 100 µM
same,GI50,CCRF-CEM leukemia,10.1 µM and > 100 µM
same,TGI,CCRF-CEM leukemia,> 100 µM
same,GI50,COLO 205 colon,13.5 µM and > 100 µM
same,TGI,COLO 205 colon,31.8 µM and > 100 µM
same,GI50,DU-145 prostate,16.7 µM and > 100 µM
same,TGI,DU-145 prostate,30.8 µM and > 100 µM
same,GI50,EKVX NSCLC,17.8 µM and > 100 µM
same,TGI,EKVX NSCLC,36.8 µM and > 100 µM
same,GI50,HCC-2998 colon,18.8 µM and > 100 µM
same,TGI,HCC-2998 colon,36.9 µM and > 100 µM
same,GI50,HCT-116 colon,19.2 µM and > 100 µM
same,TGI,HCT-116 colon,36.2 µM and > 100 µM
same,GI50,HCT-15 colon,20.8 µM and > 100 µM
same,TGI,HCT-15 colon,45 µM and > 100 µM
same,GI50,HL-60(TB) leukemia,28.8 µM and > 100 µM
same,TGI,HL-60(TB) leukemia,69.9 µM and > 100 µM
same,GI50,HOP-62 NSCLC,18 µM and > 100 µM
same,TGI,HOP-62 NSCLC,36.2 µM and > 100 µM
same,GI50,HOP-92 NSCLC,20.8 µM and > 100 µM
same,TGI,HOP-92 NSCLC,39 µM and > 100 µM
same,TGI,HS 578T breast,82.3 µM and > 100 µM
same,GI50,HT29 colon,21.4 µM and > 100 µM
same,TGI,HT29 colon,47.1 µM and > 100 µM
same,GI50,IGROV1 ovarian,10.7 µM and > 100 µM
same,TGI,IGROV1 ovarian,33.2 µM and > 100 µM
same,TGI,K-562 leukemia,> 100 µM
same,TGI,KM12 colon,22.5 µM and > 100 µM
same,GI50,LOX IMVI melanoma,17.4 µM and > 100 µM
same,TGI,LOX IMVI melanoma,40.3 µM and > 100 µM
same,GI50,M14 melanoma,16.7 µM and > 100 µM
same,TGI,M14 melanoma,37.8 µM and > 100 µM
same,TGI,MCF7 breast,23.3 µM and > 100 µM
same,GI50,MDA-MB-231 breast,17.6 µM and > 100 µM
same,TGI,MDA-MB-231 breast,35 µM and > 100 µM
same,TGI,MDA-MB-435,11.9 µM and > 100 µM
same,GI50,MOLT-4 leukemia,23.4 µM and > 100 µM
same,TGI,MOLT-4 leukemia,81.6 µM and > 100 µM
same,TGI,NCI-H23 lung,32.1 µM and > 100 µM
same,GI50,NCI/ADR-RES ovarian,23.5 µM and > 100 µM
same,TGI,NCI/ADR-RES ovarian,59.5 µM and > 100 µM
same,TGI,OVCAR-4 ovarian,13.7 µM and > 100 µM
same,GI50,OVCAR-5 ovarian,19 µM and > 100 µM
same,TGI,OVCAR-5 ovarian,33.3 µM and > 100 µM
same,GI50,OVCAR-8 ovarian,21.6 µM and > 100 µM
same,TGI,OVCAR-8 ovarian,51.6 µM and > 100 µM
same,GI50,PC-3 prostate,17 µM and > 100 µM
same,TGI,PC-3 prostate,42.7 µM and > 100 µM
same,TGI,RPMI-8226 leukemia,> 100 µM
same,GI50,RXF 393 renal,17.9 µM and > 100 µM
same,TGI,RXF 393 renal,35.2 µM and > 100 µM
same,TGI,SF-268 CNS,30.8 µM and > 100 µM
same,GI50,SF-295 CNS,26.7 µM and > 100 µM
same,TGI,SF-295 CNS,> 100 µM
same,GI50,SF-539 CNS,12.8 µM and > 100 µM
same,TGI,SF-539 CNS,29.4 µM and > 100 µM
same,TGI,SK-MEL-2 melanoma,13 µM and > 100 µM
same,TGI,SK-MEL-28 melanoma,22.3 µM and > 100 µM
same,GI50,SK-OV-3 ovarian,17.5 µM and > 100 µM
same,TGI,SK-OV-3 ovarian,31.7 µM and > 100 µM
same,GI50,SN12C renal,20.4 µM and > 100 µM
same,TGI,SN12C renal,41.4 µM and > 100 µM
same,GI50,SNB-19 CNS,34.6 µM and > 100 µM
same,TGI,SNB-19 CNS,> 100 µM
same,TGI,SNB-75 CNS,17.9 µM and > 100 µM
same,TGI,SR leukemia,> 100 µM
same,GI50,SW-620 colon,16.6 µM and > 100 µM
same,TGI,SW-620 colon,33.8 µM and > 100 µM
same,GI50,TK-10 renal,19.7 µM and > 100 µM
same,TGI,TK-10 renal,39.6 µM and > 100 µM
same,TGI,U251 CNS,22.9 µM and > 100 µM
same,TGI,UACC-257 melanoma,10.8 µM and > 100 µM
same,GI50,UO-31 renal,17.4 µM and > 100 µM
same,TGI,UO-31 renal,37.4 µM and > 100 µM
c1ccc(C2=NOC3(c4ccccc4)CC(c4cccs4)Sc4ccccc4N23)cc1 (stereo not given),GI50,HCT-116 colon,28.2 µM
same,GI50,HT29 colon,65.5 µM
same,GI50,K-562 leukemia,23.6 µM
same,GI50,MOLT-4 leukemia,8.75 µM
same,GI50,OVCAR-5 ovarian,35.1 µM
same,GI50,U251 CNS,7.58 µM
same,GI50,UO-31 renal,89.1 µM
